# Measured values reported in patent US10815238B2, “Antimicrobial compounds and methods of making and using the same” (BIOVERSYS AG, priority 2013, dated 2020).
# Tested on: Eschericia coli (E. coli) strain ATCC25922
# Experiment: Standard microdilution assay, MIC against E. coli ATCC25922
# Assay type: cell-based
# Conditions: Escherichia coli; E. coli strain ATCC25922, standard microdilution assay; cutoff 16 micrograms/mL; read-out: MIC E. Coli
# Procedure, shortened: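 MIC determined by broth microdilution following CLSI protocols, with reference strains run in parallel for quality control. Activity scored +/− at a cutoff of 16 micrograms/mL.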
row,SMILES,MIC [µg/mL]
1,C[C@H](N)CCCc1cc(Cl)c(F)c(-c2cc3cn(-c4ccc(CNCc5ccc(=O)[nH]c5)cc4)c(=O)nc3[nH]2)c1 [Compound 149],> 16
2,C[C@H](N)CCCc1cc(Cl)c(F)c(-c2cc3cn(-c4ccc([C@H](CF)NCCCNC(=N)N)cc4)c(=O)nc3[nH]2)c1 [Compound 150],< 16
3,CC[C@H](N)CCNCc1ccc(-n2cc3cc(-c4cc(CCC[C@H](C)N)cc(Cl)c4F)[nH]c3nc2=O)cc1 [Compound 152],< 16
4,C[C@H](N)CCCc1cc(Cl)c(F)c(-c2cc3cn(-c4ccc([C@@H](N)CCNc5nccs5)cc4)c(=O)nc3[nH]2)c1 [Compound 153],> 16
5,CC(C)[C@H](N)CCNCc1ccc(-n2cc3cc(-c4cc(CCC[C@H](C)N)cc(Cl)c4F)[nH]c3nc2=O)cc1 [Compound 155],< 16
6,CC(C)[C@@H](N)CCNCc1ccc(-n2cc3cc(-c4cc(CCC[C@H](C)N)cc(Cl)c4F)[nH]c3nc2=O)cc1 [Compound 156],< 16
7,C[C@H](N)CCCc1cc(SC(F)(F)F)cc(-c2cc3cn(-c4ccc([C@@H](N)CCNc5nccs5)cc4)c(=O)nc3[nH]2)c1 [Compound 157],> 16
8,C[C@H](N)CCCc1cc(Cl)c(F)c(-c2cc3cn(-c4ccc(CNCc5cnc(N)s5)cc4)c(=O)nc3[nH]2)c1 [Compound 158],> 16
9,C[C@H](N)CCCc1cc(SC(F)(F)F)cc(-c2cc3cn(-c4ccc(CNCc5cnc(N)s5)cc4)c(=O)nc3[nH]2)c1 [Compound 159],> 16
10,CC(N)CCNCc1ccc(-n2cc3cc(-c4cc(CCC[C@H](C)N)cc(Cl)c4F)[nH]c3nc2=O)cc1 (stereo partly drawn) [Compound 160],< 16
11,C[C@H](N)CCCc1cc(Cl)c(F)c(-c2cc3cn(-c4ccc([C@@H](N)CCN(C(=O)c5ccccc5)c5nccs5)cc4)c(=O)nc3[nH]2)c1 [Compound 161],> 16
12,C[C@H](N)CCCc1cc(Cl)c(F)c(-c2cc3cn(-c4ccc(CNCc5nn[nH]n5)cc4)c(=O)nc3[nH]2)c1 [Compound 162],> 16
13,C[C@H](N)CCCc1cc(SC(F)(F)F)cc(-c2cc3cn(-c4ccc(CNCc5nn[nH]n5)cc4)c(=O)nc3[nH]2)c1 [Compound 163],> 16
14,C[C@H](N)CCCc1cc(-c2cc3cn(-c4ccc([C@H](C)NCCCNC(=N)N)cc4)c(=O)nc3[nH]2)cc([S+]([O-])C(F)(F)F)c1 (stereo partly drawn) [Compound 164],< 16
15,C[C@H](N)CCCc1cc(Cl)c(F)c(-c2cc3cn(-c4ccc(CNCC#N)cc4)c(=O)nc3[nH]2)c1 [Compound 165],> 16
16,CCOC(=N)CNCc1ccc(-n2cc3cc(-c4cc(CCC[C@H](C)N)cc(Cl)c4F)[nH]c3nc2=O)cc1 [Compound 166],> 16
17,C[C@H](N)CCCc1cc(Cl)c(F)c(-c2cc3cn(-c4ccc(CNCC[C@@H](N)CO)cc4)c(=O)nc3[nH]2)c1 [Compound 167],< 16
18,N=C(N)NCCCN[C@@H](CCF)c1ccc(-n2cc3cc(-c4cc(CCC[C@@H](N)CF)cc(Cl)c4F)[nH]c3nc2=O)cc1 [Compound 168],< 16
19,C[C@H](N)CCCc1cc(Cl)c(F)c(-c2cc3cn(-c4ccc(CNCC(=N)N)cc4)c(=O)nc3[nH]2)c1 [Compound 169],> 16
20,C[C@H](N)CCCc1cc(SC(F)(F)F)cc(-c2cc3cn(-c4ccc(CNCC#N)cc4)c(=O)nc3[nH]2)c1 [Compound 170],> 16

row,SMILES,MIC [µg/mL]
1,COC[C@H](N)CCCc1cc(Cl)c(F)c(-c2cc3cn(-c4ccc([C@H](C)NCCCNC(=N)N)cc4)c(=O)nc3[nH]2)c1 [Compound 171],< 16
2,C[C@H](N)CCCc1cc(Cl)c(F)c(-c2cc3cn(-c4ccc(CNCCC(N)C(F)(F)F)cc4)c(=O)nc3[nH]2)c1 (stereo partly drawn) [Compound 172],> 16
3,C=C[C@@H](N)CCNCc1ccc(-n2cc3cc(-c4cc(CCC[C@H](C)N)cc(Cl)c4F)[nH]c3nc2=O)cc1 [Compound 173],< 16
4,C[C@H](N)CCCc1cc(Cl)c(F)c(-c2cc3cn(-c4ccc(CNCC[C@@H](NC(=N)N)C5CC5)cc4)c(=O)nc3[nH]2)c1 [Compound 174],< 16
5,C[C@H](N)CCCc1cc(Cl)c(F)c(-c2cc3cn(-c4ccc(CNCCC(C)(C)N)cc4)c(=O)nc3[nH]2)c1 [Compound 175],< 16
6,C[C@H](N)CCCc1cc(SC(F)(F)F)cc(-c2cc3cn(-c4ccc(CNCCC(C)(C)N)cc4)c(=O)nc3[nH]2)c1 [Compound 176],< 16
7,C=C[C@@H](CCNCc1ccc(-n2cc3cc(-c4cc(CCC[C@H](C)N)cc(Cl)c4F)[nH]c3nc2=O)cc1)NC(=N)N [Compound 177],< 16
8,COC[C@H](N)CCNCc1ccc(-n2cc3cc(-c4cc(CCC[C@H](C)N)cc(Cl)c4F)[nH]c3nc2=O)cc1 [Compound 178],< 16
9,CN[C@H](CCNCc1ccc(-n2cc3cc(-c4cc(CCC[C@H](C)N)cc(Cl)c4F)[nH]c3nc2=O)cc1)COC [Compound 179],< 16
10,C=C[C@H](CCNCc1ccc(-n2cc3cc(-c4cc(CCC[C@H](C)N)cc(Cl)c4F)[nH]c3nc2=O)cc1)NC(=N)N [Compound 180],< 16
11,C[C@H](N)CCCc1cc(Cl)c(F)c(-c2cc3cn(-c4ccc(CNCC[C@H](CO)NC(=N)N)cc4)c(=O)nc3[nH]2)c1 [Compound 181],< 16
12,C[C@H](N)CCCc1cc(Cl)c(F)c(-c2cc3cn(-c4ccc(CNCC[C@@H](N)CN)cc4)c(=O)nc3[nH]2)c1 [Compound 182],< 16
13,CC[C@@H](CCNCc1ccc(-n2cc3cc(-c4cc(CCC[C@H](C)N)cc(Cl)c4F)[nH]c3nc2=O)cc1)NC(=N)N [Compound 183],< 16
14,C[C@H](N)CCCc1cc(Cl)c(F)c(-c2cc3cn(-c4ccc(CNCC[C@@H](N)CCO)cc4)c(=O)nc3[nH]2)c1 [Compound 184],< 16
15,C[C@H](N)CCCc1cc(Cl)c(F)c(-c2cc3cn(-c4ccc(CNCC[C@H](CCO)NC(=N)N)cc4)c(=O)nc3[nH]2)c1 [Compound 185],< 16
16,CC(CCNCc1ccc(-n2cc3cc(-c4cc(CCC[C@H](C)N)cc(Cl)c4F)[nH]c3nc2=O)cc1)NC(=N)N (stereo partly drawn) [Compound 186],< 16
17,C[C@H](N)CCCc1cc(Cl)c(F)c(-c2cc3cn(-c4ccc(CNCC[C@@H](C)N)cc4)c(=O)nc3[nH]2)c1 [Compound 187],< 16
18,C[C@H](N)CCCc1cc(Cl)c(F)c(-c2cc3cn(-c4ccc(CNCC[C@@H](C)NC(=N)N)cc4)c(=O)nc3[nH]2)c1 [Compound 188],< 16
19,C[C@H](N)CCCc1cc(Cl)c(F)c(-c2cc3cn(-c4ccc(CNCCC5(N)CNC5)cc4)c(=O)nc3[nH]2)c1 [Compound 189],< 16
20,C[C@H](N)CCCc1cc(Cl)c(F)c(-c2cc3cn(-c4ccc(CNCCC5(N)CN(C(=N)N)C5)cc4)c(=O)nc3[nH]2)c1 [Compound 190],< 16

row,SMILES,MIC [µg/mL]
1,C[C@H](N)CCCc1cc(Cl)c(F)c(-c2cc3cn(-c4ccc(CNCC[C@@H](CO)NC(=N)N)cc4)c(=O)nc3[nH]2)c1 [Compound 191],< 16
2,C[C@H](N)CCCc1cc(Cl)c(F)c(-c2cc3cn(-c4ccc(CNCC[C@H](N)CO)cc4)c(=O)nc3[nH]2)c1 [Compound 192],< 16
3,C[C@H](N)CCCc1cc(Cl)c(F)c(-c2cc3cn(-c4ccc([C@H](C)NCC[C@@H](C)N)cc4)c(=O)nc3[nH]2)c1 [Compound 193],< 16
4,C[C@H](N)CCCc1cc(Cl)c(F)c(-c2cc3cn(-c4ccc([C@H](C)NCC[C@@H](C)NC(=N)N)cc4)c(=O)nc3[nH]2)c1 [Compound 194],< 16
5,C[C@H](N)CCCc1cc(Cl)c(F)c(-c2cc3cn(-c4ccc(CN[C@@H](C)CCNC(=N)N)cc4)c(=O)nc3[nH]2)c1 [Compound 195],< 16
6,C[C@H](N)CCCc1cc(Cl)c(F)c(-c2cc3cn(-c4ccc(CN[C@@H](C)CCN)cc4)c(=O)nc3[nH]2)c1 [Compound 196],< 16
7,CC[C@@H](N)CCNCc1ccc(-n2cc3cc(-c4cc(CCC[C@H](C)N)cc(Cl)c4F)[nH]c3nc2=O)cc1 [Compound 197],< 16
8,CC[C@H](CCNCc1ccc(-n2cc3cc(-c4cc(CCC[C@H](C)N)cc(Cl)c4F)[nH]c3nc2=O)cc1)NC(=N)N [Compound 198],< 16
9,C[C@H](N)CCCc1cc(-c2cc3cn(-c4ccc([C@H](C)NCC[C@@H](C)N)cc4)c(=O)nc3[nH]2)cc(C(F)(F)F)c1 [Compound 199],< 16
10,C[C@H](N)CCCc1cc(-c2cc3cn(-c4ccc([C@H](C)NCC[C@@H](C)NC(=N)N)cc4)c(=O)nc3[nH]2)cc(C(F)(F)F)c1 [Compound 200],< 16
11,C=CC[C@H](N)CCNCc1ccc(-n2cc3cc(-c4cc(CCC[C@H](C)N)cc(Cl)c4F)[nH]c3nc2=O)cc1 [Compound 201],< 16
12,C=CC[C@@H](CCNCc1ccc(-n2cc3cc(-c4cc(CCC[C@H](C)N)cc(Cl)c4F)[nH]c3nc2=O)cc1)NC(=N)N [Compound 202],< 16
13,C[C@H](N)CCCc1cc(Cl)c(F)c(-c2cc3cn(-c4ccc(CNCC[C@H](CN)NC(=N)N)cc4)c(=O)nc3[nH]2)c1 [Compound 203],< 16
14,C[C@H](N)CCCc1cc(Cl)c(F)c(-c2cc3cn(-c4ccc(CNCC[C@@H]5CN=C(N)N5)cc4)c(=O)nc3[nH]2)c1 [Compound 204],< 16
15,C[C@H](N)CCCc1cc(Cl)c(F)c(-c2cc3cn(-c4ccc([C@H](C)NCCCN(C)C(=N)N)cc4)c(=O)nc3[nH]2)c1 [Compound 205],< 16
16,C=CC[C@@H](N)CCNCc1ccc(-n2cc3cc(-c4cc(CCC[C@H](C)N)cc(Cl)c4F)[nH]c3nc2=O)cc1 [Compound 206],< 16
17,C=CC[C@H](CCNCc1ccc(-n2cc3cc(-c4cc(CCC[C@H](C)N)cc(Cl)c4F)[nH]c3nc2=O)cc1)NC(=N)N [Compound 207],< 16
18,CNCCCN[C@@H](C)c1ccc(-n2cc3cc(-c4cc(CCC[C@H](C)N)cc(Cl)c4F)[nH]c3nc2=O)cc1 [Compound 208],< 16
19,C[C@H](N)CCCc1cc(Cl)c(F)c(-c2cc3cn(-c4ccc(CN[C@H](C)CCNC(=N)N)cc4)c(=O)nc3[nH]2)c1 [Compound 209],< 16
20,C[C@H](N)CCCc1cc(Cl)c(F)c(-c2cc3cn(-c4ccc(CN[C@H](C)CCN)cc4)c(=O)nc3[nH]2)c1 [Compound 210],< 16
